Assay results taken from patent US8426429B2, “2-amino-quinazoline derivatives useful as inhibitors of β-secretase (BACE)” (Jansssen Pharmaceutica N.V., priority 2004, dated 2013).

Biological target: T1, β-secretase (BACE) (Homo sapiens, UniProt P56817)
T1 construct: purchased Panvera
Experiment: BACE FS1 % Inhibition Assay
Assay type: biochemical
How it was run: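 Percent inhibition per compound concentration was referenced to vehicle-treated enzyme and no-enzyme wells. Enzyme at a 4 μg/mL working stock plus compound was mixed for 20 min at room temperature before the FS1 substrate (300 μg/mL working stock) was added for a 1 h room-temperature reaction.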

T1 sequence (P56817 46-501): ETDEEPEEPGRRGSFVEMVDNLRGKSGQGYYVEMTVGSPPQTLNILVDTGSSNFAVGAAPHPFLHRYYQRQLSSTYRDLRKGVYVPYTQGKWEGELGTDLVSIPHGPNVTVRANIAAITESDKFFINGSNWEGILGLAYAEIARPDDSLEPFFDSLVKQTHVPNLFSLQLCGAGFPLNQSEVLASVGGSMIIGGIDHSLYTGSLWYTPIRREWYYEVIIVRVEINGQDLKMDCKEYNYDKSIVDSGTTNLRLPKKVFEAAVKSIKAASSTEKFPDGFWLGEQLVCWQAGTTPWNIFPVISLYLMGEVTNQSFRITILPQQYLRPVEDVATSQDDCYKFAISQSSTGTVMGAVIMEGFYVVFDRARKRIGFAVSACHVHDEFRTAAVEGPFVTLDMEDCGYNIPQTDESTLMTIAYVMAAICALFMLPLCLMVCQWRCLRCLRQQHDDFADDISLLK

Row | SMILES | % Inhibition (FS) (0.3 μM test compound) [%] | % Inhibition (FS) (1 μM test compound) [%] | % Inhibition (FS) (3 μM test compound) [%] | % Inhibition (FS) (0.3 μM test compound, 0.3 µM) [%] | % Inhibition (FS) (1 μM test compound, 1 µM) [%] | % Inhibition (FS) (3 μM test compound, 3 µM) [%]
1 | CC(C)(C)NS(=O)(=O)c1ccccc1-c1ccc2c(c1)CN(CCNC(=O)C1CCCCC1)C(N)=N2 [Compound 542] | <30 | <30 | 73 | – | – | –
2 | NC(=O)c1ccccc1-c1ccc2c(c1)CN(CCNC(=O)C1CCCCC1)C(N)=N2 [Compound 543] | <30 | <30 | <30 | – | – | –
3 | NC1=Nc2ccc(-c3ccccc3-c3ccccc3)cc2CN1CCNC(=O)C1CCCCC1 [Compound 544] | 32 | <30 | 51 | – | – | –
4 | CN(C(=O)c1cccc(CN2Cc3cc([S+]([O-])c4ccccc4)ccc3N=C2N)c1)C1CCCCC1 (stereo not drawn) [Compound 549] | <30 | 30 | 71 | – | – | –
5 | NC1=Nc2ccc(Oc3ccccc3)cc2CN1C1CCCCN(C(=O)C23CC4CC(CC(C4)C2)C3)C1 (stereo not drawn) [Compound 550] | <30 | <30 | 67 | – | – | –
6 | NC1=Nc2ccc(Oc3ccccc3)cc2CN1C1CCCCN(C(=O)C2CCCCC2)C1 (stereo not drawn) [Compound 551] | <30 | <30 | <30 | – | – | –
7 | CCCC(CCC)C(=O)N1CCCCC(N2Cc3cc(Oc4ccccc4)ccc3N=C2N)C1 (stereo not drawn) [Compound 552] | <30 | <30 | 36 | – | – | –
8 | CC(C)[C@@H](CNC(=O)C12CC3CC(CC(C3)C1)C2)N1Cc2cc(Oc3ccccc3)ccc2N=C1N [Compound 553] | <30 | <30 | 49 | – | – | –
9 | CCCC(CNC(=O)C1CCCCC1)N1Cc2cc(Oc3ccccc3)ccc2N=C1N (stereo not drawn) [Compound 554] | – | – | – | <30 | <30 | 42
10 | CCCC(CNC(=O)C12CC3CC(CC(C3)C1)C2)N1Cc2cc(Oc3ccccc3)ccc2N=C1N (stereo not drawn) [Compound 555] | – | – | – | <30 | <30 | 46
11 | CN(C(=O)CCC(CO)N1Cc2cc(Oc3ccccc3)ccc2N=C1N)C1CCCCC1 (stereo not drawn) [Compound 557] | <30 | <30 | <30 | – | – | –
12 | CN(C(=O)c1ncoc1C(Cc1ccccc1)N1Cc2cc(Oc3ccccc3)ccc2N=C1N)C1CCCCC1 (stereo not drawn) [Compound 559] | <30 | <30 | <30 | – | – | –
13 | CC(C)CC(=O)NC[C@@H](C(C)C)N1Cc2cc(Oc3ccccc3)ccc2N=C1N [Compound 563] | 101 | 119 | 127 | – | – | –
14 | CC(C)CCC(=O)NC[C@@H](C(C)C)N1Cc2cc(Oc3ccccc3)ccc2N=C1N [Compound 564] | 112 | 119 | 129 | – | – | –
15 | N#Cc1cccc(C(=O)NCCN2Cc3cc(-c4cncnc4)ccc3N=C2N)c1 [Compound 567] | <30 | <30 | <30 | – | – | –
16 | CCCC=Cc1ccc2c(c1)CN(CCNC(=O)c1cccc(C#N)c1)C(N)=N2 [Compound 568] | <30 | <30 | <30 | – | – | –
17 | CCCC(=O)NCCN1Cc2cc(-c3cncnc3)ccc2N=C1N [Compound 569] | <30 | <30 | <30 | – | – | –
18 | CCCC(=O)NCCN1Cc2cc(-c3ccncc3)ccc2N=C1N [Compound 570] | <30 | <30 | <30 | – | – | –
19 | CCCC=Cc1ccc2c(c1)CN(CCNC(=O)CCC)C(N)=N2 [Compound 571] | <30 | <30 | <30 | – | – | –
20 | CC(C)(C)C(=O)NCCN1Cc2cc(-c3ccncc3)ccc2N=C1N [Compound 573] | <30 | <30 | <30 | – | – | –
21 | CCCC=Cc1ccc2c(c1)CN(CCNC(=O)C(C)(C)C)C(N)=N2 [Compound 574] | <30 | <30 | <30 | – | – | –
22 | NC1=Nc2ccc(-c3cncnc3)cc2CN1CCNC(=O)C1CCCCC1 [Compound 575] | <30 | <30 | <30 | – | – | –
23 | NC1=Nc2ccc(-c3ccncc3)cc2CN1CCNC(=O)C1CCCCC1 [Compound 576] | <30 | <30 | <30 | – | – | –
24 | CCCC=Cc1ccc2c(c1)CN(CCNC(=O)C1CCCCC1)C(N)=N2 [Compound 577] | <30 | <30 | <30 | – | – | –
25 | CCCC=Cc1ccc2c(c1)CN(CCNC(=O)CC1CCCC1)C(N)=N2 [Compound 580] | <30 | <30 | <30 | – | – | –

Row | SMILES | % Inhibition (FS) (0.3 μM test compound) [%] | % Inhibition (FS) (1 μM test compound) [%] | % Inhibition (FS) (3 μM test compound) [%] | % Inhibition (FS) (0.3 μM test compound, 0.3 µM) [%] | % Inhibition (FS) (1 μM test compound, 1 µM) [%] | % Inhibition (FS) (3 μM test compound, 3 µM) [%]
26 | CC(=O)c1cccc(-c2ccc3c(c2)CN(CCNC(=O)CC2CCCC2)C(N)=N3)c1 [Compound 582] | <30 | <30 | <30 | – | – | –
27 | NC1=Nc2ccc(-c3cccc(C(F)(F)F)c3)cc2CN1CCNC(=O)CC1CCCC1 [Compound 584] | <30 | <30 | 56 | – | – | –
28 | Cc1cc(C(=O)NCCN2Cc3cc(-c4ccccc4)ccc3N=C2N)c(C)o1 [Compound 586] | <30 | <30 | 59 | – | – | –
29 | CCCC=Cc1ccc2c(c1)CN(CCNC(=O)c1cc(C)oc1C)C(N)=N2 [Compound 587] | <30 | <30 | <30 | – | – | –
30 | CC(=O)c1cccc(-c2ccc3c(c2)CN(CCNC(=O)c2cc(C)oc2C)C(N)=N3)c1 [Compound 588] | <30 | <30 | <30 | – | – | –
31 | Cc1cc(C(=O)NCCN2Cc3cc(-c4cccc(CO)c4)ccc3N=C2N)c(C)o1 [Compound 589] | <30 | <30 | <30 | – | – | –
32 | Cc1cc(C(=O)NCCN2Cc3cc(-c4cccc(C(F)(F)F)c4)ccc3N=C2N)c(C)o1 [Compound 590] | <30 | <30 | <30 | – | – | –
33 | CC(=O)Nc1ccc(C(=O)NCCN2Cc3cc(-c4ccccc4)ccc3N=C2N)cc1 [Compound 591] | <30 | <30 | <30 | – | – | –
34 | CCCC=Cc1ccc2c(c1)CN(CCNC(=O)c1ccc(NC(C)=O)cc1)C(N)=N2 [Compound 592] | <30 | <30 | <30 | – | – | –
35 | CC(=O)Nc1ccc(C(=O)NCCN2Cc3cc(-c4cccc(CO)c4)ccc3N=C2N)cc1 [Compound 593] | <30 | <30 | <30 | – | – | –
36 | CC(=O)Nc1ccc(C(=O)NCCN2Cc3cc(-c4cccc(C(F)(F)F)c4)ccc3N=C2N)cc1 [Compound 594] | <30 | <30 | <30 | – | – | –
37 | CCCC=Cc1ccc2c(c1)CN(CCNC(=O)Cc1ccccc1)C(N)=N2 [Compound 596] | <30 | <30 | <30 | – | – | –
38 | CC(=O)c1cccc(-c2ccc3c(c2)CN(CCNC(=O)Cc2ccccc2)C(N)=N3)c1 [Compound 598] | <30 | <30 | 36 | – | – | –
39 | NC1=Nc2ccc(-c3cccc(CO)c3)cc2CN1CCNC(=O)Cc1ccccc1 [Compound 599] | <30 | <30 | 65 | – | – | –
40 | NC1=Nc2ccc(-c3cccc(C(F)(F)F)c3)cc2CN1CCNC(=O)Cc1ccccc1 [Compound 600] | <30 | <30 | 41 | – | – | –
41 | CCCC(CNC(=O)C1CCCCC1)N1Cc2cc(Oc3ccccc3)ccc2N=C1N (stereo not drawn) [Compound 601] | – | – | – | 105 | 115 | 121
42 | CCCC(CNC(=O)C12CC3CC(CC(C3)C1)C2)N1Cc2cc(Oc3ccccc3)ccc2N=C1N (stereo not drawn) [Compound 602] | – | – | – | 78 | 113 | 121
43 | CCC[C@H](CNC(=O)CCC(C)C)N1Cc2cc(Oc3ccccc3)ccc2N=C1N [Compound 603] | 101 | 114 | 122 | – | – | –
44 | COc1ccccc1-c1ccc2c(c1)CN(Cc1cccc(C(=O)N(C)C3CCCCC3)c1)C(NC(C)=O)=N2 [Compound 607] | 94 | 116 | 123 | – | – | –
45 | NC1=Nc2ccc(Oc3ccccc3)cc2CN1C1CCCN(C(=O)C2CCCCC2)C1 (stereo not drawn) [Compound 611] | <30 | 36 | <30 | – | – | –
46 | CCCC(CCC)C(=O)N1CCCC(N2Cc3cc(Oc4ccccc4)ccc3N=C2N)C1 (stereo not drawn) [Compound 612] | <30 | 34 | <30 | – | – | –
47 | CC(C)CCC(=O)N1CCCC(N2Cc3cc(Oc4ccccc4)ccc3N=C2N)C1 (stereo not drawn) [Compound 613] | 36 | 31 | <30 | – | – | –
48 | NC1=Nc2ccc(Oc3ccccc3)cc2CN1C(CNC(=O)C1CCCCC1)Cc1ccc(O)cc1 (stereo not drawn) [Compound 614] | <30 | <30 | <30 | – | – | –
49 | CC(C)CCC(=O)NCC(Cc1ccc(O)cc1)N1Cc2cc(Oc3ccccc3)ccc2N=C1N (stereo not drawn) [Compound 615] | <30 | <30 | <30 | – | – | –
